The results in this text go back to article PMC5448288 (Journal of the American Chemical Society, 2009).

Molecules are shown by their SMILES. Several values for one entry are separate records, joined by “and”; a condition that tells them apart may be missing. Equal entries are not always repeated.

The target of the assay is human indoleamine 2,3-dioxygenase (hIDO) (Homo sapiens, UniProt P14902). As to the kind of experiment: steady-state dioxygenase activity of hIDO.
Setting [1] is: compound as substrate, no IDE, pH 7.4, air-saturated, kcat = Vmax/[hIDO].
Where [2] appears, read: L-Trp reaction in the presence of 2.5 mM IDE, pH 7.4.
Where [3] appears, read: L-Trp reaction in the presence of 5.1 mM IDE, pH 7.4.

Chain of human indoleamine 2,3-dioxygenase (hIDO) (P14902 whole entry): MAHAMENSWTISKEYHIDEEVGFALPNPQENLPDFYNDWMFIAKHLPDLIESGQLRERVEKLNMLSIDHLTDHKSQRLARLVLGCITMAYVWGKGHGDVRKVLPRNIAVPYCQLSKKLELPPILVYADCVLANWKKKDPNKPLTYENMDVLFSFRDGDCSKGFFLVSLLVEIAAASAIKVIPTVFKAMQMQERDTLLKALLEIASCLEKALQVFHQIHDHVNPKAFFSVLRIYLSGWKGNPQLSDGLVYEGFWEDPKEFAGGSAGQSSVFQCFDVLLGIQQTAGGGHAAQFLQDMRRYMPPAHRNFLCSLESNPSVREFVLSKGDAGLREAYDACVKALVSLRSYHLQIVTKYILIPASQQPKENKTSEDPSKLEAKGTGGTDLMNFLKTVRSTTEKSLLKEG

By kcat is commonly meant the number of substrate molecules converted per active site and unit of time at saturation. As to `N[C@@H](Cc1c[nH]c2ccccc12)C(=O)O` [L-Trp, L-tryptophan], under setting [1], the kcat worked out at 3.1 ± 0.2 s⁻¹. For the same molecule, for the setting “compound as substrate, no IDE, pH 7.4, fit with eq 1”, the “Ksi (self-inhibition / substrate-inhibition constant)” value was 0.17 mM and 0.17 ± 0.2 mM.
`OCCc1c[nH]c2ccccc12` [IDE, 3-Indole Ethanol]: under setting [2], the Ksi came to 0.48 ± 0.05 mM and the kcat stood at 3.2 ± 0.4 s⁻¹. Under setting [3], the Ksi was 1.0 ± 0.1 mM and the kcat is 3.5 ± 0.6 s⁻¹.
Turning to `CO[C@@]12[C@H](COC(N)=O)C3=C(C(=O)C(C)=C(N)C3=O)N1C[C@@H]1N[C@@H]12` [MtoC, Mitomycin C], where the note is “Lineweaver–Burk plot of L-Trp reaction”, the mode of inhibition entry was “uncompetitive”.
Usually Km stands for the substrate concentration at which the rate is half of its maximum. As for `N[C@H](Cc1c[nH]c2ccccc12)C(=O)O` [D-Trp], the substrate inhibition result (activity as a function of substrate concentration, Figure 1b) was “No substrate inhibition was observed”. For the same molecule, for the setting “compound as substrate”, the Km stood at 2600 µM; the “Km, fold larger as compared to the L-Trp reaction” value came to 170 fold; the “kcat, fold faster as compared to the L-Trp reaction” value is on record as 2 fold. Under “compound as substrate, no IDE, pH 7.4, air-saturated”, the Km worked out at 2600 µM. Moreover, the kcat under setting [1] was 5.9 s⁻¹ and 5.9 ± 0.3 s⁻¹.
